pIC50: −log10 of the molar value.
Target: EED (Homo sapiens, UniProt O75530)
Test: EED TR-FRET Binding Assay (modified LanthaScreen competition assay)
Procedure: Compounds were tested in a modified LanthaScreen competition assay.
The following buffer was used to set up the binding reactions: 20 mM Tris-HCl pH 7.5, 200 mM NaCl, 0.01% Tween-20, 10 uM DTT (dithiothreitol), and 0.05% BSA (bovine serum albumin), with the DTT and BSA added fresh prior to initiating the binding assay. […] The reactions were then incubated for 1 hour at 25° C. in a humidified chamber prior to detection on the Perkin Elmer Envision plate reader using a Lanthascreen TR-FRET protocol.

Chain of EED (O75530 whole entry): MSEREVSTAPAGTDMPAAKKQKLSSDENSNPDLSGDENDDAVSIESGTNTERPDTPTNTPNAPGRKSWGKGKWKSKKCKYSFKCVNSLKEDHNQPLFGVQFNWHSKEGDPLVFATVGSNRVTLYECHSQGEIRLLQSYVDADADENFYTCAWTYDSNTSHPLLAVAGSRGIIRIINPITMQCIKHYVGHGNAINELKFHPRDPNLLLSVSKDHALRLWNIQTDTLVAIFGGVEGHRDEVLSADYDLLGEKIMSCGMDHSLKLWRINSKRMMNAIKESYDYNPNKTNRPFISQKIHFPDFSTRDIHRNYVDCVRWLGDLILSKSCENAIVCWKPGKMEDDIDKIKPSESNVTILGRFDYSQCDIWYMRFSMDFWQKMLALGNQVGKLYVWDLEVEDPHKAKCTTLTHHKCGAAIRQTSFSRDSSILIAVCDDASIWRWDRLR

`CN(C)[C@H]1CN(C2CCc3cccc(F)c32)C[C@@H]1C1CCOCC1` (mixture of isomers) [Example 144, rac-(3R,4S)-1-(7-fluoro-2,3-dihydro-1H-inden-1-yl)-N,N-dimethyl-4-(oxan-4-yl)pyrrolidin-3-amine] was tested. Which pIC50 did it give?
The pIC50 was 7.92.

How did the pIC50 turn out when `CN(C)[C@@H]1CN(C2CCc3cccc(F)c32)C[C@H]1c1ccc(N2CCNCC2)nc1` (mixture of isomers) [Example 145, rac-(3S,4R)-1-(7-fluoro-2,3-dihydro-1H-inden-1-yl)-N,N-dimethyl-4-[6-(piperazin-1-yl)pyridin-3-yl]pyrrolidin-3-amine] was run?
Its pIC50 is 8.28.

`CN(C)[C@H]1CN([C@H]2CCc3ccccc32)C[C@@H]1c1ccc(S(C)(=O)=O)cc1` [Example 9, (3R,4S)-1-[(1S)-2,3-dihydro-1H-inden-1-yl]-4-[4-(methanesulfonyl)phenyl]-N,N-dimethylpyrrolidin-3-amine] was tested. Which pIC50 did it give?
Its pIC50 is 8.00.

With `CN(C)[C@@H]1CN([C@H]2CCc3ccccc32)C[C@H]1c1ccc(S(C)(=O)=O)cc1` [Example 10, (3S,4R)-1-[(1S)-2,3-dihydro-1H-inden-1-yl]-4-[4-(methanesulfonyl)phenyl]-N,N-dimethylpyrrolidin-3-amine] as the molecule, how does the pIC50 read?
The pIC50 was 6.54.

How did the pIC50 turn out when `CN(C)[C@@H]1CN([C@H]2CC(O)c3cccc(F)c32)C[C@H]1c1ccc(S(C)(=O)=O)cc1` (stereo partly drawn) [Example 33, (3S)-3-{(3S,4R)-3-(dimethylamino)-4-[4-(methanesulfonyl)phenyl]pyrrolidin-1-yl}-4-fluoro-2,3-dihydro-1H-inden-1-ol] was run?
Its pIC50 is under 4.30.

With `CC(=O)N1CCN(c2ccc([C@H]3CN(C4CCc5ccccc54)C[C@@H]3N(C)C)cc2)CC1` (stereo partly drawn) [Example 42, 1-(4-{4-[(3S,4R)-1-(2,3-dihydro-1H-inden-1-yl)-4-(dimethylamino)pyrrolidin-3-yl]phenyl}piperazin-1-yl)ethan-1-one] as the molecule, how does the pIC50 read?
The pIC50 was under 4.30.

How did the pIC50 turn out when `CC(=O)N1CCN(c2ccc([C@@H]3CN([C@H]4CCc5cccc(F)c54)C[C@H]3N(C)C)cc2)CC1` [Example 47, 1-[4-(4-{(3R,4S)-4-(dimethylamino)-1-[(1S)-7-fluoro-2,3-dihydro-1H-inden-1-yl]pyrrolidin-3-yl}phenyl)piperazin-1-yl]ethan-1-one] was run?
The pIC50 was 7.37.

With `CC(=O)N1CCN(c2ccc([C@@H]3CN([C@@H]4CCc5cccc(F)c54)C[C@H]3N(C)C)cc2)CC1` [Example 48, 1-[4-(4-{(3R,4S)-4-(dimethylamino)-1-[(1R)-7-fluoro-2,3-dihydro-1H-inden-1-yl]pyrrolidin-3-yl}phenyl)piperazin-1-yl]ethan-1-one] as the molecule, how does the pIC50 read?
The pIC50 was 7.74.

With `CN(C)[C@@H]1CN(C2CCc3cccc(F)c32)C[C@H]1c1ccc(N2CCN(C(=O)OC(C)(C)C)CC2)cc1` (stereo partly drawn) [Example 50, tert-butyl 4-{4-[(3R,4S)-4-(dimethylamino)-1-(7-fluoro-2,3-dihydro-1H-inden-1-yl)pyrrolidin-3-yl]phenyl}piperazine-1-carboxylate] as the molecule, how does the pIC50 read?
Its pIC50 is 8.94.

With `CN(C)[C@@H]1CN(C2CCc3cccc(F)c32)C[C@H]1c1cn(C)c2c(C(=O)O)cccc12` (stereo partly drawn) [Example 81, 3-[(3R,4S)-4-(dimethylamino)-1-(7-fluoro-2,3-dihydro-1H-inden-1-yl)pyrrolidin-3-yl]-1-methyl-1H-indole-7-carboxylic acid] as the molecule, how does the pIC50 read?
The pIC50 was 7.01.

How did the pIC50 turn out when `COC(=O)c1cccc2c([C@H]3CN(C4CCc5cccc(F)c54)C[C@@H]3N(C)C)cn(C)c12` (stereo partly drawn) [Example 84, methyl 3-[(3S,4R)-4-(dimethylamino)-1-(7-fluoro-2,3-dihydro-1H-inden-1-yl)pyrrolidin-3-yl]-1-methyl-1H-indole-7-carboxylate] was run?
The pIC50 was 9.53.

With `COC(=O)c1cccc2c([C@@H]3CN(C4CCc5cccc(F)c54)C[C@H]3N(C)C)cn(C)c12` (stereo partly drawn) [Example 86, methyl 3-[(3R,4S)-4-(dimethylamino)-1-(7-fluoro-2,3-dihydro-1H-inden-1-yl)pyrrolidin-3-yl]-1-methyl-1H-indole-7-carboxylate] as the molecule, how does the pIC50 read?
Its pIC50 is 7.83.

`CN(C)[C@H]1CN(C2CCc3ccc(F)c(F)c32)C[C@@H]1c1cn(C)c2ccccc12` (stereo partly drawn) [Example 96, (3R,4S)-1-(6,7-difluoro-2,3-dihydro-1H-inden-1-yl)-N,N-dimethyl-4-(1-methyl-1H-indol-3-yl)pyrrolidin-3-amine] was tested. Which pIC50 did it give?
The pIC50 was 8.37.
